Test results reported in publication PMC5811606, “Characterization of ^111In-labeled Glucose-Dependent Insulinotropic Polypeptide as a Radiotracer for Neuroendocrine Tumors” (Scientific Reports, 2018).
Like-named read-outs stand apart in the source and are kept apart here.

Experiment: Peptide dose escalation study, BHK-GIPR tumor mice
Format: in vivo, BALB/c nude mice
Conditions: female, iv, total radioactivity; for tissue to tissue ratio at 4 h: BHK-GIPR tumor / blood, read-out: Tumor/Blood
Experimental: All animal experiments were approved by the Animal Welfare Body of the Radboud University, Nijmegen, The Netherlands and carried out in accordance with their guidelines. Six to eight weeks old, female BALB/c nude mice and C3H mice were purchased from Janvier labs (Le Genest Saint Isle, France). For all in vivo experiments, 6-8 weeks old female BALB/c nude mice were injected subcutaneously in the right shoulder with 0.2 ml of a 2.5 × 10^7 cells/ml suspension of BHK-GIPR transfected cells or with 0.2 ml of a 2.5 × 10^7 cells/ml suspension of NES2Y cells mixed with matrigel (2:1) in the right shoulder. When the tumor reached a diameter of 2-5 mm, mice were randomly divided in groups.
To determine the optimal peptide dose of [Lys^37(DTPA)]N-acetyl-GIP1-42, BHK-GIPR transfected tumor bearing BALB/c nude mice (n = 5/group) were injected intravenously with approximately 3 MBq [Lys^37(^111In-DTPA)]N-acetyl-GIP1-42 (0.05 µg) in the tail vein and were co-injected with escalating amounts of unlabeled [Lys^37(DTPA)]N-acetyl-GIP1-42 (0.05 µg – 1.95 µg), resulting in final peptide doses ranging from 0.1 to 2 µg/mouse (0.02 – 0.4 nmol/mouse) (5 groups, n = 5/group). Four hours after injection, mice were euthanized by CO2/O2 suffocation and tumors and other relevant tissues (heart, muscle, lung, spleen, pancreas, kidney, liver, stomach and duodenum) were dissected, weighed and measured in a well type gamma counter. The percentage injected dose per gram of tissue (%ID/g) was determined for each tissue.

With `CC[C@H](C)[C@H](NC(=O)[C@H](CO)NC(=O)[C@H](Cc1ccc(O)cc1)NC(=O)[C@H](CC(=O)O)NC(=O)[C@H](CO)NC(=O)[C@@H](NC(=O)[C@H](Cc1ccccc1)NC(=O)[C@@H](NC(=O)CNC(=O)[C@H](CCC(=O)O)NC(=O)[C@H](C)NC(=O)[C@H](Cc1ccc(O)cc1)NC(C)=O)[C@@H](C)O)[C@@H](C)CC)C(=O)N[C@@H](C)C(=O)N[C@@H](CCSC)C(=O)N[C@@H](CC(=O)O)C(=O)N[C@@H](CCCCN)C(=O)N[C@H](C(=O)N[C@@H](Cc1c[nH]cn1)C(=O)N[C@@H](CCC(N)=O)C(=O)N[C@@H](CCC(N)=O)C(=O)N[C@@H](CC(=O)O)C(=O)N[C@@H](Cc1ccccc1)C(=O)N[C@H](C(=O)N[C@@H](CC(N)=O)C(=O)N[C@@H](Cc1c[nH]c2ccccc12)C(=O)N[C@@H](CC(C)C)C(=O)N[C@@H](CC(C)C)C(=O)N[C@@H](C)C(=O)N[C@@H](CCC(N)=O)C(=O)N[C@@H](CCCCN)C(=O)NCC(=O)N[C@@H](CCCCN)C(=O)N[C@@H](CCCCN)C(=O)N[C@@H](CC(N)=O)C(=O)N[C@@H](CC(=O)O)C(=O)N[C@@H](Cc1c[nH]c2ccccc12)C(=O)N[C@@H](CCCCNC(=O)CN(CCN(CCN(CC(=O)O)CC(=O)O)CC(=O)O)CC(=O)O)C(=O)N[C@@H](Cc1c[nH]cn1)C(=O)N[C@@H](CC(N)=O)C(=O)N[C@H](C(=O)N[C@H](C(=O)N[C@@H](CCC(N)=O)C(=O)O)[C@@H](C)O)[C@@H](C)CC)C(C)C)[C@@H](C)CC` [[Lys^37(^111In-DTPA)]N-acetyl-GIP1-42, metal not drawn] the tissue uptake at 4 h (BALB/c nude, BHK-GIPR tumor, peptide doses ≤ 0.2 µg (0.04 nmol) per mouse, 4 hours post-injection, mean ± SD, n=5, read-out: tumor uptake) was 5.2 ± 1.4 %ID/g, the tissue uptake at 4 h (BALB/c nude, mouse, 0.5 ug/mouse, BHK-GIPR tumor, peptide dose 0.5 µg (0.1 nmol), 4 hours post-injection, mean ± SD, n=5, read-out: tumor uptake) was 2.4 ± 0.7 %ID/g and the tissue to tissue ratio at 4 h (mouse, 0.1 ug/mouse, BHK-GIPR tumor BALB/c nude mice, i.v., peptide dose 0.1 µg, 4 h p.i., mean n=5) was 143. The tissue to tissue ratio at 4 h (mouse, 0.2 ug/mouse, BHK-GIPR tumor BALB/c nude mice, i.v., peptide dose 0.2 µg, 4 h p.i., mean n=5) was 110, the tissue to tissue ratio at 4 h (mouse, 0.5 ug/mouse, BHK-GIPR tumor BALB/c nude mice, i.v., peptide dose 0.5 µg, 4 h p.i., mean n=5) was 52.6 and the tissue to tissue ratio at 4 h (mouse, 1 ug/mouse, BHK-GIPR tumor BALB/c nude mice, i.v., peptide dose 1 µg, 4 h p.i., mean n=5) was 50.3. The tissue uptake at 4 h (mouse, blood, 0.1 ug/mouse, BHK-GIPR tumor BALB/c nude mice, i.v., peptide dose 0.1 µg, 4 h p.i., mean n=5, read-out: Blood uptake) was 0.033 %ID/g, the tissue uptake at 4 h (mouse, blood, 0.2 ug/mouse, BHK-GIPR tumor BALB/c nude mice, i.v., peptide dose 0.2 µg, 4 h p.i., mean n=5, read-out: Blood uptake) was 0.047 %ID/g and the tissue uptake at 4 h (mouse, blood, 0.5 ug/mouse, BHK-GIPR tumor BALB/c nude mice, i.v., peptide dose 0.5 µg, 4 h p.i., mean n=5, read-out: Blood uptake) was 0.047 %ID/g. It also gave a tissue uptake at 4 h (mouse, blood, 1 ug/mouse, BHK-GIPR tumor BALB/c nude mice, i.v., peptide dose 1 µg, 4 h p.i., mean n=5, read-out: Blood uptake) of 0.059 %ID/g, a tissue uptake at 4 h (mouse, blood, 2 ug/mouse, BHK-GIPR tumor BALB/c nude mice, i.v., peptide dose 2 µg, 4 h p.i., mean n=5, read-out: Blood uptake) of 0.066 %ID/g and a tissue uptake at 4 h (mouse, duodenum, 0.1 ug/mouse, BHK-GIPR tumor BALB/c nude mice, i.v., peptide dose 0.1 µg, 4 h p.i., mean n=5, read-out: Duodenum uptake) of 0.486 %ID/g. For the same compound, the tissue uptake at 4 h (mouse, duodenum, 0.2 ug/mouse, BHK-GIPR tumor BALB/c nude mice, i.v., peptide dose 0.2 µg, 4 h p.i., mean n=5, read-out: Duodenum uptake) was 0.573 %ID/g, the tissue uptake at 4 h (mouse, duodenum, 0.5 ug/mouse, BHK-GIPR tumor BALB/c nude mice, i.v., peptide dose 0.5 µg, 4 h p.i., mean n=5, read-out: Duodenum uptake) was 0.529 %ID/g and the tissue uptake at 4 h (mouse, duodenum, 1 ug/mouse, BHK-GIPR tumor BALB/c nude mice, i.v., peptide dose 1 µg, 4 h p.i., mean n=5, read-out: Duodenum uptake) was 0.75 %ID/g. It also gave a tissue uptake at 4 h (mouse, duodenum, 2 ug/mouse, BHK-GIPR tumor BALB/c nude mice, i.v., peptide dose 2 µg, 4 h p.i., mean n=5, read-out: Duodenum uptake) of 0.929 %ID/g, a tissue uptake at 4 h (mouse, heart, 0.1 ug/mouse, BHK-GIPR tumor BALB/c nude mice, i.v., peptide dose 0.1 µg, 4 h p.i., mean n=5, read-out: Heart uptake) of 0.133 %ID/g and a tissue uptake at 4 h (mouse, heart, 0.2 ug/mouse, BHK-GIPR tumor BALB/c nude mice, i.v., peptide dose 0.2 µg, 4 h p.i., mean n=5, read-out: Heart uptake) of 0.156 %ID/g. For the same compound, the tissue uptake at 4 h (mouse, heart, 0.5 ug/mouse, BHK-GIPR tumor BALB/c nude mice, i.v., peptide dose 0.5 µg, 4 h p.i., mean n=5, read-out: Heart uptake) was 0.163 %ID/g, the tissue uptake at 4 h (mouse, heart, 1 ug/mouse, BHK-GIPR tumor BALB/c nude mice, i.v., peptide dose 1 µg, 4 h p.i., mean n=5, read-out: Heart uptake) was 0.178 %ID/g and the tissue uptake at 4 h (mouse, heart, 2 ug, BHK-GIPR tumor BALB/c nude mice, i.v., peptide dose 2 µg, 4 h p.i., mean n=5, read-out: Heart uptake) was 0.173 %ID/g. It also gave a tissue uptake at 4 h (mouse, kidney, 0.1 ug/mouse, BHK-GIPR tumor BALB/c nude mice, i.v., peptide dose 0.1 µg, 4 h p.i., mean n=5, read-out: Kidney uptake) of 237 %ID/g, a tissue uptake at 4 h (mouse, kidney, 0.2 ug/mouse, BHK-GIPR tumor BALB/c nude mice, i.v., peptide dose 0.2 µg, 4 h p.i., mean n=5, read-out: Kidney uptake) of 265 %ID/g and a tissue uptake at 4 h (mouse, kidney, 0.5 ug/mouse, BHK-GIPR tumor BALB/c nude mice, i.v., peptide dose 0.5 µg, 4 h p.i., mean n=5, read-out: Kidney uptake) of 214 %ID/g. The tissue uptake at 4 h (mouse, kidney, 1 ug/mouse, BHK-GIPR tumor BALB/c nude mice, i.v., peptide dose 1 µg, 4 h p.i., mean n=5, read-out: Kidney uptake) was 287 %ID/g, the tissue uptake at 4 h (mouse, kidney, 2 ug/mouse, BHK-GIPR tumor BALB/c nude mice, i.v., peptide dose 2 µg, 4 h p.i., mean n=5, read-out: Kidney uptake) was 257 %ID/g and the tissue uptake at 4 h (mouse, liver, 0.1 ug/mouse, BHK-GIPR tumor BALB/c nude mice, i.v., peptide dose 0.1 µg, 4 h p.i., mean n=5, read-out: Liver uptake) was 1.6 %ID/g. For the same compound, the tissue uptake at 4 h (mouse, liver, 0.2 ug/mouse, BHK-GIPR tumor BALB/c nude mice, i.v., peptide dose 0.2 µg, 4 h p.i., mean n=5, read-out: Liver uptake) was 1.53 %ID/g, the tissue uptake at 4 h (mouse, liver, 0.5 ug/mouse, BHK-GIPR tumor BALB/c nude mice, i.v., peptide dose 0.5 µg, 4 h p.i., mean n=5, read-out: Liver uptake) was 1.55 %ID/g and the tissue uptake at 4 h (mouse, liver, 1 ug/mouse, BHK-GIPR tumor BALB/c nude mice, i.v., peptide dose 1 µg, 4 h p.i., mean n=5, read-out: Liver uptake) was 1.74 %ID/g. It also gave a tissue uptake at 4 h (mouse, liver, 2 ug/mouse, BHK-GIPR tumor BALB/c nude mice, i.v., peptide dose 2 µg, 4 h p.i., mean n=5, read-out: Liver uptake) of 1.83 %ID/g, a tissue uptake at 4 h (mouse, lung, 0.1 ug, BHK-GIPR tumor BALB/c nude mice, i.v., peptide dose 0.1 µg, 4 h p.i., mean n=5, read-out: Lung uptake) of 0.364 %ID/g and a tissue uptake at 4 h (mouse, lung, 0.2 ug, BHK-GIPR tumor BALB/c nude mice, i.v., peptide dose 0.2 µg, 4 h p.i., mean n=5, read-out: Lung uptake) of 0.518 %ID/g. It also gave a tissue uptake at 4 h (mouse, lung, 0.5 ug, BHK-GIPR tumor BALB/c nude mice, i.v., peptide dose 0.5 µg, 4 h p.i., mean n=5, read-out: Lung uptake) of 0.577 %ID/g, a tissue uptake at 4 h (mouse, lung, 1 ug, BHK-GIPR tumor BALB/c nude mice, i.v., peptide dose 1 µg, 4 h p.i., mean n=5, read-out: Lung uptake) of 0.608 %ID/g and a tissue uptake at 4 h (mouse, lung, 2 ug, BHK-GIPR tumor BALB/c nude mice, i.v., peptide dose 2 µg, 4 h p.i., mean n=5, read-out: Lung uptake) of 0.56 %ID/g.
